Source: patent publication US20130129675A1, “INTERFERON THERAPIES IN COMBINATION WITH BLOCKADE OF STAT3 ACTIVATION” (BOARD OF REGENTS, THE UNIVERSITY OF TEXAS SYSTEM, priority 2009, published 2013)
Where two headings read alike, the source gives them in different places.

How the values were obtained:
[1] = test system: head and neck carcinoma (MDA1986), pancreatic cancer (MiaPaca2), bladder cancer, glioma (U-87), lymphoma, myeloma, leukemia; conditions: 40 mg/kg intraperitoneally every other day for 28 days; cited from earlier work
[2] = test system: human melanoma xenografts and syngeneic murine melanoma; experiment: WP1066 in melanoma xenografts and syngeneic melanoma; type: in vivo; conditions: oral gavage
Protocol: (§1) Iwamaru A, Szymanski S, Iwado E, et al., A Novel Inhibitor Of The STAT3 Pathway Induces Apoptosis In Malignant Glioma Cells Both In Vitro And In Vivo. Oncogene 2006; 26: 2435-2444. […] To determine whether treatment with WP1066 is efficacious against established syngeneic intracerebral tumors, C57BL/6J mice with melanoma tumors (B16) were treated by oral gavage with WP1066 starting on day 3 after tumor implantation. […] Kong L Y, Abou-Ghazal M K, Wei J, et al., A Novel Inhibitor Of STAT3 Activation Is Efficacious Against Established Central Nervous System Melanoma And Inhibits Regulatory T Cells, Clin Cancer Res (Submitted).

[3] = Toxicology of p-STAT3 inhibitors in mice (histology of systemic organs, Luxol fast blue staining of CNS axis); type: in vivo, C57BL/6J mice; conditions: for histological examination of the systemic organs: treated mice
From the text: The toxicological properties of the small molecule inhibitors of p-STAT3 appear favorable. […] Because p-STAT3 blockade agents are potent immune activators, nonspecific immune reactivity in the CNS remains a consideration. […] Fujita M, Zhu X, Sasaki K, et al., Inhibition Of STAT3 Promotes The Efficacy Of Adoptive Transfer Therapy Using Type-1 CTLs By Modulation Of The Immunological Microenvironment In A Murine Intracranial Glioma, J Immunol 2008; 180:2089-2098. This lack of induced autoimmunity may be due to STAT3's role as the key regulator of the generation of Th17 cells, which are primary immune cell mediators of autoimmunity. Thus, the inhibitors of p-STAT3 may also be inhibiting the mediators of CNS autoimmunity-Th 17 responses.

[4] = test system: CD4+CD25+ T cells (natural Tregs); experiment: FoxP3 expression in natural Tregs (nTreg); type: cell-based, C57BL/6J mice; conditions: 0, 0.1 and 1.0 μM, 96 hours, flow cytometry (FIG. 2)
Protocol: (§2) The blockade of activation of STAT3 and its subsequent nuclear translocation inhibits both tumorigenesis and tumor-mediated immunosuppression. […] CD4^+CD25^−CD62L^hi naïve T cells from C57BL/6J mice were stimulated by plate-bound anti-CD3 (2 μg/ml) and soluble anti-CD28 (2 μg/ml) in the presence of TGF-β1 (1 ng/ml) and hIL-2 (200 U/ml), with 0, 0.1, and 1.0 μM WP1066 for inducible Tregs (iTreg) differentiation. CD4^+CD25^+ T cells (natural Tregs, nTreg) were stimulated by plate-bound anti-CD3 (2 μg/ml) and soluble anti-CD28 (2 μg/ml) in the presence of hIL-2 (200 U/ml), with 0, 0.1, and 1.0 μM WP1066. Ninety-six hours after stimulation, the cells were analyzed for intracellular FoxP3 expression by flow cytometry. The percentage of FoxP3 expressing T cells is shown.
(§3) In additional experiments, CD4^+CD25^−CD62L^hi naïve T cells from C57BL/6J mice were stimulated by plate-bound anti-CD3 (2 μg/ml) and soluble anti-CD28 (2 μg/ml) in the presence of TGF-β1 (1 ng/ml) and hIL-2 (200 U/ml), with 0, 0.1, and 1.0 μM WP1066 for inducible Tregs (iTreg) differentiation. CD4^+CD25^+ T cells (natural Tregs, nTreg) were stimulated by plate-bound anti-CD3 (2 μg/ml) and soluble anti-CD28 (2 μg/ml) in the presence of hIL-2 (200 U/ml), with 0, 0.1, and 1.0 μM WP1066. Ninety-six hours after stimulation, the cells were analyzed for intracellular FoxP3 expression by flow cytometry.

[5] = test system: microglia, systemic APCs and T cells from patients with cancer; experiment: WP1066 on immune cells obtained from patients with cancer; type: cell-based
From the text: We recently have shown that blocking STAT3 activity by treatment with WP1066 in microglia obtained from the CNS of patients with cancer upregulates co-stimulatory molecules (e.g., CD80, CD86). The expression of co-stimulatory molecules is necessary for T-cell proliferation, and if a T cell encounters APCs, such as microglia/microphages, without co-stimulatory molecules present, the T cells will be rendered anergic. […] Of note, this potent immune activation occurred in immune cells obtained from patients with disease refractory to other conventional immune activators, such as toll-like receptor agonists.

[6] = design: species or system CD1 mice; conditions: in vivo; for mean peak plasma concentration: CD1, mouse, iv
Protocol: Of central importance to the treatment of CNS gliomas and metastasis is the use of agents with sufficient CNS permeability and subsequent cytotoxic activity, of which there is direct evidence for WP1066 and indirect evidence for JSI-124. To determine the physiological doses of WP1066 that can be achieved in vivo, CD1 mice were given WP1066 as an intravenous bolus (10 or 40 mg/kg) or by oral gavage (40 mg/kg) and killed at various time points up to 24 hours after treatment. […] When WP1066 was delivered intraperitoneally at a dose of 100 mg/kg or intravenously at a dose of 10 mg/kg every other day for up to 2 weeks, plasma concentrations exceeded 1 μM, and CNS concentrations (with an intact blood-brain barrier) exceeded 62 μg/g of tissue (0.185 μM); concentrations in U87-MG malignant glioma-bearing animals exceeded 362 μg/g (1.08 μM). […] Fujita M, Zhu X, Sasaki K, et al., Inhibition Of STAT3 Promotes The Efficacy Of Adoptive Transfer Therapy Using Type-1 CTLs By Modulation Of The Immunological Microenvironment In A Murine Intracranial Glioma, J Immunol 2008; 180:2089-2098.

melanoma tumors (B16) = experiment: WP1066 against established syngeneic intracerebral tumors; type: in vivo, C57BL/6J mice
Protocol: as §1
Fujita M, Zhu X, Sasaki K, et al., Inhibition Of STAT3 Promotes The Efficacy Of Adoptive Transfer Therapy Using Type-1 CTLs By Modulation Of The Immunological Microenvironment In A Murine Intracranial Glioma, J Immunol 2008; 180:2089-2098. […] Furthermore, when JSI-124 was combined with adoptive transfer of type I cytotoxic T lymphocytes, survival was further enhanced compared with treatment with either modality alone. The authors concluded that the inhibition of STAT3 could reverse the immune-suppressive immune microenvironment and promote the efficacy of adoptive transfer therapy. Id.

[7] = test system: malignant glioma xenografts (U-87 and U-373); conditions: cited from earlier work
[8] = test system: CD4+CD25−CD62Lhi naïve T cells; experiment: FoxP3 induction during inducible Treg (iTreg) differentiation; type: cell-based, C57BL/6J mice; conditions: 0, 0.1 and 1.0 μM, 96 hours, flow cytometry (FIG. 2)
Protocol: as §2, §3

STAT3 = STAT3 (Homo sapiens, UniProt P40763); conditions: in vitro; cited from earlier work
Chain of STAT3 (P40763 whole entry, species assumed): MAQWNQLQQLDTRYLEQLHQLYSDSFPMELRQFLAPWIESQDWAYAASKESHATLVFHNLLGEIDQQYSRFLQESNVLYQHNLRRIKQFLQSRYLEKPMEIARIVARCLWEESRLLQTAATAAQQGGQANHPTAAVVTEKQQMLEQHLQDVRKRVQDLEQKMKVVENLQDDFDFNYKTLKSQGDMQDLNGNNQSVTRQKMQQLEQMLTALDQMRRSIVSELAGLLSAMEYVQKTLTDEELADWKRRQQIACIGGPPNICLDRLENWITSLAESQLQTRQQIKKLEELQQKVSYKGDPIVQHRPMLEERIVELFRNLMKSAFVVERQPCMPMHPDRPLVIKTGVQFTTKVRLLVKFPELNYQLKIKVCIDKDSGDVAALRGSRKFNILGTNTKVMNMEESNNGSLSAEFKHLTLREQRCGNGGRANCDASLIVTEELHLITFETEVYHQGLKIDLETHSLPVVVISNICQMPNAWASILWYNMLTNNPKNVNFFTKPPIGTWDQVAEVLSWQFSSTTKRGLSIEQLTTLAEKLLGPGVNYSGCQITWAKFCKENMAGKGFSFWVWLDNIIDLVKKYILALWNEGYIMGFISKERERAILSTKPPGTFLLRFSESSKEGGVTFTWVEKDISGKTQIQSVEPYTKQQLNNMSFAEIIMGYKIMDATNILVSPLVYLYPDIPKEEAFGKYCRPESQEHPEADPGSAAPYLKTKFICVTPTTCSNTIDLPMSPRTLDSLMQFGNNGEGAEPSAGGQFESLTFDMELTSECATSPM

[9] = test system: STAT3 in HaCaT keratinocytes; experiment: pSTAT3 level in HaCaT keratinocytes (MSD chemiluminescent detection); type: cell-based, human; conditions: for Relative level of pSAT3: HaCaT cells, stimuli for 30 minutes
Protocol: Prior to experiments, the DMEM medium was changed to KGM-SFM containing rEGF and bovine pituitary extract for 12 hours, and the cells then exposed to various stimuli for 30 minutes. Cell lysates were extracted in IP lysis buffer were diluted in MSD extraction buffer and 25 uL of the cell lysate containing 10 ug protein was used in the analysis via chemiluminescent detection (MSD Technology). To test for inhibition by WP1220 (WP), cells were pre-incubated with WP1220 prior to the addition of IFN α.

[10] = test system: human breast tumor xenografts; conditions: cited from earlier work
[11] = test system: breast carcinoma cell lines with constitutively active STAT3; conditions: cited from earlier work
[12] = test system: human breast carcinoma and syngeneic murine melanoma; conditions: not in carcinomas that lack constitutive expression of p-STAT3; cited from earlier work
[13] = test system: lymphoma and cervical cancer; conditions: cited from earlier work
intracerebral tumors = conditions: mouse, in vivo; cited from earlier work
[14] = animals treated with JSI-124 (Fujita et al.); cited from earlier work
[15] = test system: human lung cancer xenografts; conditions: cited from earlier work

Question: With `C[C@H](NC(=O)/C(C#N)=C/c1cccc(Br)n1)c1ccccc1` [WP1066, (S,E)-3-(6-bromopyridin-2-yl)-2-cyano-N-(1-phenylethyl)acrylamide] as the compound, how does the tumor growth [1] read?
Answer: statistically significant suppression of tumor growth

Question: And the tumor growth [2]?
Answer: marked growth suppression

Question: What about the “induction of autoimmunity in CNS (Luxol fast blue staining)” value ([3]; C57BL/6J mice) of the same compound?
Answer: no evidence of induction of autoimmunity

Question: And the local tolerability ([3]; mouse, in vivo)?
Answer: localized inflammatory responses

Question: What about the “histological examination of the systemic organs” value [3] of the same compound?
Answer: failed to reveal any major toxicities

Question: And the “FoxP3 in natural Tregs” value [4]?
Answer: down-regulates FoxP3

Question: And the “immune-suppressive cytokines such as TGF-β” value [5]?
Answer: inhibits

Question: What about the “production of pro-inflammatory cytokines (IL-2, IL-4, IL-12, IL-15) by systemic APCs” value ([5]; immune-suppressed patients) of the same compound?
Answer: induces

Question: And the “co-stimulatory molecules (CD80, CD86) on microglia” value ([5]; microglia from the CNS of patients with cancer)?
Answer: upregulates

Question: And the “mean peak plasma concentration” value ([6]; 10 mg/kg)?
Answer: 1.05 µM

Question: What about the “mean peak plasma concentration” value ([6]; 40 mg/kg) of the same compound?
Answer: 4.31 µM

Question: What about the “mean peak plasma concentration (oral bioavailability studies)” value ([6]; mouse, po, 40 mg/kg) of the same compound?
Answer: greater than 2 μM

Question: What about the “in vivo efficacy in immune-incompetent background” value (melanoma tumors (B16); established intracerebral tumors, immune-incompetent background) of the same compound?
Answer: ablated

Question: What about the animals surviving long-term (melanoma tumors (B16); oral gavage starting on day 3 after tumor implantation, vehicle control 0%) of the same compound?
Answer: 80%

Question: What about the “duration of p-STAT3 inhibition in excised tumors after the final injection” value ([7]; immunohistochemical analysis) of the same compound?
Answer: at least 3 weeks

Question: What about the tumor growth ([7]; systemic intraperitoneal administration, 30-day follow-up) of the same compound?
Answer: significant inhibition of tumor growth

Question: What about the “FoxP3 induction in T cells” value [8] of the same compound?
Answer: inhibiting FoxP3 induction

Question: For `N#C/C(=C\c1ccc(O)c(O)c1)C(=O)NCc1ccccc1` [AG490, (E)-N-benzyl-2-cyano-3-(3,4-dihydroxyphenyl)acrylamide], which IC50 (STAT3) is on record?
Answer: > 50 µM

Question: Which “Relative level of pSAT3” value [9] does the source give for “bFGF: basic fibroblast growth factor, stimulus in HaCaT pSTAT3 test” here?
Answer: + (+=less than 200 fold)

Question: Which “in vivo tumor growth” value [10] does the source give for `Cc1ccc(S(=O)(=O)OCC(=O)Nc2ccc(C(=O)O)c(O)c2)cc1` [Example S31-301] here?
Answer: suppress the in vivo growth of human breast tumor xenografts

Question: And the growth and apoptosis [11]?
Answer: inhibit growth and induce apoptosis preferentially

Question: Which results are given for “IL-6: cytokine, stimulus in HaCaT pSTAT3 test”?
Answer: STAT3 activation in keratinocytes [9]: potently induce STAT3 activation; Relative level of pSAT3 [9]: +++++ (+++++=400-500 fold)

Question: With `CC(C)(O)/C=C/C(=O)[C@](C)(O)[C@H]1[C@H](O)C[C@@]2(C)[C@@H]3CC=C4[C@@H](C=C(O)C(=O)C4(C)C)[C@]3(C)C(=O)C[C@]12C` [JSI-124, cucurbitacin I] as the compound, how does the “in vivo tumor growth” value [12] read?
Answer: inhibit the in vivo growth of human breast carcinoma and syngeneic murine melanoma

Question: And the in vitro activity [13]?
Answer: in vitro activity against lymphoma and cervical cancer

Question: And the “histological examination of the systemic organs” value [3]?
Answer: failed to reveal any major toxicities

Question: And the survival (intracerebral tumors)?
Answer: prolonged survival

Question: What about the induced autoimmunity [14] of the same compound?
Answer: no evidence of induced autoimmunity

Question: Which “in vivo tumor growth” value [15] does the source give for Cucurbitacin Q here?
Answer: suppressed in vivo growth of human lung cancer xenografts

Question: For “EGF: growth factor, stimulus in HaCaT pSTAT3 test (NSDSECPLSHDGYCLHDGVCMYIEALDKYACNCVVGYIGERCQYRDLKWWELR; Epidermal growth factor; UniProt P01133 971-1023, looked up)”, which “Relative level of pSAT3” value [9] is on record?
Answer: + (+=less than 200 fold)
